Measurements published in patent US9334303B2, “Peptide compound useful for inhibiting amyloid plaque formation” (KIMONELLA VENTURES LTD., priority 2010, dated 2016).
Where a SMILES comes first, the peptide text is derived from it.

How the values were obtained:
[1] = biological target: T1, immobilized peptide fragment corresponding to the region 1-16 of the amyloid-β peptide (Homo sapiens, UniProt P05067); assay: SPR binding (BIACORE T100), Example 3, in the absence of zinc; settings: for Kd: BIACORE T100, no zinc, at least 99% L isomers, read-out: dissociation constant Kd (Example 3)
T1 construct: N-terminal acetyl cap (Ac); C-terminal amide cap (NH2)
T1 sequence (P05067 with tags, fused parts or gaps limits assumed): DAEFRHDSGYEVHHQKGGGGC
Description: The binding tests described in Example 1 were reproduced, with the same materials, reactives and procedures except for the following significant differences: • the BIACORE apparatus applied was the BIACORE T100 apparatus. This BIACORE T100 apparatus produces more accurate results than the BIACORE 3000 because it includes a degasification system upon injecting the analyte on the sensor and because the method for detecting immobilized ligand/analyte intermolecular complexes on the CM5 chip is more accurate. • the tetrapeptides according to the invention used were purified to at least 99% in L isomers according to HPLC data, the D isomers were prevented from forming and/or removed during the synthesis. In Example 1, the tetrapeptides only included 98% of L isomers. • the concentrations of the tetrapeptides according to the invention applied were 50; 100; 200; 500; 1,000; 1,500 and 2,000 μM. • these experiments were conducted in the absence of zinc. • the surface of the CM5 chips provided a surface which gave a variation of response units (RU) of about 1,023 arbitrary units, with a control liquid sample.
the dissociation constant Kd being given by the formula Kd=koff/kon.

[2] = biological target: T2, Aβ peptide (1-40) (Homo sapiens, UniProt P05067); assay: Aβ aggregation on SYNTHALOID SCREENING PLATE kit (fluorescence); type: biochemical; settings: for IC50: 100 nM marked Aβ (1-40), 3 hours at room temperature, buffer with physiological Zn(II), read-out: inhibitory concentration IC50 of aggregation of the Aβ peptide; for effect of prolonged incubation on amyloid aggregates: incubation for at least 1 hour, 20, 40, 80, 100 and 150 μM
T2 construct: The complete β peptide 1-40 was used, marked by a fluorescent marker; purchased QUALITY CONTROLLED BIOCHEMICALS Inc. USA
T2 sequence (P05067 672-711 limits assumed): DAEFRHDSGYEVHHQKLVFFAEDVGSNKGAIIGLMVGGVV
Method: They were left to incubate for 3 hours at room temperature in the wells.
In certain wells, tetrapeptides AC-HAEE-NH2 and Ac-RADD-NH2 according to the invention, were introduced at different concentrations depending on the wells (0, 5, 10, 20, 40, 80, 100 and 150 μM), for checking the effect of tetrapeptides according to the invention on the aggregation phenomenon of Aβ peptides.
To do this, at the end of the incubation, the unbound proteins in the wells were removed with three washings, by using the buffer solution above. The amount of bound proteins in the form of aggregates, bound to the well, was measured by measuring the fluorescence intensity.

[3] = biological target: T3, immobilized peptide fragment corresponding to the 1-16 region of the amyloid-β peptide (Homo sapiens, UniProt P05067); assay: SPR binding (BIACORE 3000), Examples 1 and 2
T3 construct: N-terminal acetyl cap (Ac); C-terminal amide cap (NH2)
Description: With this analysis, it is possible to calculate the dissociation constant Kd of the interaction of the peptide with the immobilized ligand, it being understood that the value of Kd is all the more smaller since the interaction with the ligand and therefore the stability of the formed interaction complex are high.
More specifically, in an SPR spectroscopy system, for example applying a biosensor from BIACORE, after immobilization of the ligand at the surface of a sensor of the chip type, in this case here the amyloid-β fragment, the analyte reagent is injected on said surface at a constant flow rate through systems of microfluidic channels. Polarized light emitted by a light source is reflected on the gold-covered surface of the chip, and then detected by a diode reader. According to the binding of the ligand and of the analyte molecule, the intensity of the reflected light is different. The variation in the response of the spectrometer (RU=Response unit) allows calculation of the dissociation constant of the interaction.
The chips of the biosensor came from GE Healthcare (USA). The SPR spectroscopy experiments were conducted with the BIACORE 3000 apparatus. The reagents for immobilizing the amyloid-β peptide fragment (EDC, NHS, PDEA and cysteine) were bought from GE Healthcare (USA). The buffer used for immobilizing the peptide ligand by formation of thiol bonds was 10 mM sodium acetate at pH 4.5. The regeneration buffer was an HBS buffer containing a medium with 10 mM HEPES and 3 mM EDTA, 0.005% of surfactant P20 and 150 mM NaCl at pH 7.4. […] All the buffers were filtered before use.
This peptide with 21 amino acids contains the 16 amino acids of the N-terminal end of the binding domain of the amyloid-β, i.e. [sequence] (SEQ. ID. NO.25), followed by 4 glycine amino acids and a cysteine C-Terminal end. Cysteine is necessary for immobilizing the ligand on the surface of the chip through a thiol bond according to the procedure of the supplier. 4 glycine amino acids therefore form a binding tetrapeptide (“linker”) between the chip and the ligand. Further, the thereby immobilized ligand has enough flexibility relatively to the surface, so as to validly mimic the interaction conditions between the tetrapeptide reagent and the ligand. This ligand was bound onto a CM5 chip of the biosensor, by following the standard procedure through a thiol bond under conditions described in the handbook of the sensor provided by the supplier GE Healthcare (USA).
The flow rate applied in all the steps was 5 μl/min. The carboxymethyl dextran matrix was activated by injecting a 1:1 mixture of 1-ethyl-3(3-dimethylaminopropyl)-carbodiimide (EDC) and of N-hydroxysuccinimide (NHS), i.e. 30 μl of EDC at 400 mM and NHS at 100 mM, followed by an injection of 80 mM PDEA (2-(2-pyridinyldithio)-ethane-amine) in solution in 0.1 M sodium borate at a pH of 8.5. The peptide ligand in solution in a sodium acetate buffer in an amount of 0.05 mg/ml was then injected. […] The control liquid was reacted with the surface of the chip according to the same procedure.
The surface of the chip was exposed for 330 seconds to the reagent buffer solution in order to track its binding. The surface of the chip was then regenerated by injecting a regeneration buffer (20 μL). The data of the control lane were subtracted from raw data of the lane corresponding to the immobilized reagent peptides.

Question: What does the source list for `CC(=O)N[C@@H](CCCCN)C(=O)N[C@@H](C)C(=O)N[C@@H](CC(=O)O)C(=O)N[C@@H](CCC(=O)O)C(N)=O` [SEQ. ID. NO. 15, KADE] (Ac-KADE-NH2)?
Answer: koff [1]: 0.0096 ± 0.0002 s⁻¹; kon [1]: 2.2 ± 0.1 M⁻¹ s⁻¹; Kd [1]: 1000 to 10000 µM

Question: Which results are given for `CC(=O)N[C@@H](Cc1c[nH]cn1)C(=O)N[C@@H](C)C(=O)N[C@@H](CC(=O)O)C(=O)N[C@@H](CC(=O)O)C(N)=O` [SEQ. ID. NO. 1, HADD] (Ac-HADD-NH2)?
Answer: koff [1]: 0.0104 ± 2e-05 s⁻¹; kon [1]: 3.2 ± 0.08 M⁻¹ s⁻¹

Question: With `CC(=O)N[C@@H](CCCNC(=N)N)C(=O)N[C@@H](C)C(=O)N[C@@H](CCC(=O)O)C(=O)N[C@@H](CCC(=O)O)C(N)=O` [SEQ. ID. NO. 23, RAEE] (Ac-RAEE-NH2) as the compound, how does the koff [1] read?
Answer: Its koff is 0.0112 ± 8e-05 s⁻¹.

Question: What about the kon [1] of the same compound?
Answer: Its kon is 1.5 ± 0.1 M⁻¹ s⁻¹.

Question: What about the Kd [1] of the same compound?
Answer: Its Kd is 1000 to 10000 µM.

Question: How did the IC50 [2] turn out when `CC(=O)N[C@@H](Cc1c[nH]cn1)C(=O)N[C@@H](C)C(=O)N[C@@H](CCC(=O)O)C(=O)N[C@@H](CCC(=O)O)C(N)=O` [SEQ. ID. NO. 19, Ac-HAEE-NH2] (Ac-HAEE-NH2) was run?
Answer: The IC50 was 20 µM.

Question: And the “effect of prolonged incubation on amyloid aggregates” value [2]?
Answer: Its value is “irreversible disaggregation”.

Question: And the koff [1]?
Answer: Its koff is 3.5e-05 ± 8e-06 s⁻¹.

Question: And the kon [1]?
Answer: The kon was 0.37 ± 0.05 M⁻¹ s⁻¹.

Question: What about the Kd ([3]; BIACORE 3000, peptides with Ra=Ac, Rb=NH2, 98% L isomers, read-out: dissociation constant Kd) of the same compound?
Answer: The Kd was 0.022 µM.

Question: And the “interactions of the ligand with the reagent at high concentrations of Zn(II) ions” value ([3]; Zn(II) 10 mM)?
Answer: Its value is “suppressed the interactions”.

Question: What about the “dissociation constant in the presence of physiological concentrations of Zn(II) ions” value ([3]; Zn(II) 100-400 μM) of the same compound?
Answer: The value was “practically unchanged”.

Question: And the “interactions with the 1-16 domain of Aβ at higher concentrations of Zn(II) ions” value ([3]; Zn(II) of the order of 1 millimolar (mM))?
Answer: The value was “suppress the interactions”.

Question: And the “binding to the 1-16 domain of the amyloid-β in the presence or absence of Zn(II) ions” value ([3]; physiological Zn(II), micromolar levels (less than 500 μM))?
Answer: Its value is “practically not altered”.

Question: Which results are given for `CC(=O)N[C@@H](CC(=O)O)C(=O)N[C@@H](CC(=O)O)C(=O)N[C@@H](C)C(=O)N[C@@H](CCCCN)C(N)=O` [SEQ. ID. NO. 4, DDAK] (Ac-DDAK-NH2)?
Answer: koff [1]: 0.0062 ± 0.0001 s⁻¹; kon [1]: 4.57 ± 0.09 M⁻¹ s⁻¹; Kd [1]: 1000 to 10000 µM

Question: With `CC(=O)N[C@@H](CCCNC(=N)N)C(=O)N[C@@H](C)C(=O)N[C@@H](CC(=O)O)C(=O)N[C@@H](CC(=O)O)C(N)=O` [SEQ. ID. NO. 5, Ac-RADD-NH2] (Ac-RADD-NH2) as the compound, how does the IC50 [2] read?
Answer: The IC50 was 20 µM.

Question: What about the “effect of prolonged incubation on amyloid aggregates” value [2] of the same compound?
Answer: Its value is “irreversible disaggregation”.

Question: What about the koff [1] of the same compound?
Answer: Its koff is 0.00024 ± 4e-05 s⁻¹.

Question: And the kon [1]?
Answer: Its kon is 18.5 M⁻¹ s⁻¹.

Question: How did the koff [1] turn out when `CC(=O)N[C@@H](CC(=O)O)C(=O)N[C@@H](CCC(=O)O)C(=O)N[C@@H](C)C(=O)N[C@@H](CCCNC(=N)N)C(N)=O` [SEQ. ID. NO. 12, DEAR] (Ac-DEAR-NH2) was run?
Answer: The koff was 0.00709 ± 9e-05 s⁻¹.

Question: What about the kon [1] of the same compound?
Answer: The kon was 3.58 ± 0.08 M⁻¹ s⁻¹.

Question: And the Kd [1]?
Answer: The Kd was 1000 to 10000 µM.

Question: Which koff [1] does the source give for `CC(=O)N[C@@H](CCCCN)C(=O)N[C@@H](C)C(=O)N[C@@H](CCC(=O)O)C(=O)N[C@@H](CC(=O)O)C(N)=O` [SEQ. ID. NO. 9, KAED] (Ac-KAED-NH2) here?
Answer: The koff was 0.019 ± 0.001 s⁻¹.

Question: What about the kon [1] of the same compound?
Answer: Its kon is 5.7 ± 0.9 M⁻¹ s⁻¹.

Question: What about the Kd [1] of the same compound?
Answer: The Kd was 1000 to 10000 µM.
